# Results reported in patent US11518763B2 (SCOHIA PHARMA, INC., priority 2018, dated 2022).
# Biological target: T1, binding between NRF2 and KEAP1 (biotinylated human KEAP1 protein (Kelch domain), TAMRA-labeled NRF2 peptide) (Homo sapiens, UniProt Q14145)
# T1 construct: biotinylated human KEAP1 protein (Kelch domain); biotin (biotinylated)
# Assay: Measurement of activity of inhibiting NRF2 binding (NRF2-KEAP1 TR-FRET)
# Settings: inhibition rate relative to control at 100 nM test compound; TR-FRET; 60 min at room temperature; read-out: NRF2 binding inhibitory activity (at 100 nM)
# Procedure: Test Example 1: Measurement of Activity of Inhibiting NRF2 Binding
# The inhibitory activity of test compounds against the binding between NRF2 and KEAP1 was measured by Time Resolved Fluorescence Resonance Energy Transfer (TR-FRET) method. Into a 384 well plate, 2 μL of a compound, 2 μL of 2 nM solution of biotinylated human KEAP1 protein (Kelch domain), 2 μL of 14 nM solution of TAMRA-labeled NRF2 peptide (TAMRA-Abu(4)-VWYTDIRMRDWM-OH), and 2 μL of 2 nM solution of Tb-labeled streptavidin, all solutions diluted with assay buffer (25 mM HEPES, pH7.5, 150 mM NaCl, 0.01% Tween-20), were added. For some wells, the KEAP1 protein was not added to define control wells. The plate was incubated at room temperature for 60 minutes, and time-resolved fluorescence was measured with a plate reader Envision (manufactured by PerkinElmer). The inhibitory activity for each compound at a compound concentration of 100 nM were calculated as a relative activity value by setting the fluorescence intensity of control wells to which the KEAP1 protein was not added as 100% inhibition, and the fluorescence intensity of wells to which no compound was added as 0%.
# The measurement results according to the method described above (inhibition rate of signal value relative to control at 100 nM of test compound) are shown in Table 3.
# T1 sequence (Q14145 321-609 limits assumed): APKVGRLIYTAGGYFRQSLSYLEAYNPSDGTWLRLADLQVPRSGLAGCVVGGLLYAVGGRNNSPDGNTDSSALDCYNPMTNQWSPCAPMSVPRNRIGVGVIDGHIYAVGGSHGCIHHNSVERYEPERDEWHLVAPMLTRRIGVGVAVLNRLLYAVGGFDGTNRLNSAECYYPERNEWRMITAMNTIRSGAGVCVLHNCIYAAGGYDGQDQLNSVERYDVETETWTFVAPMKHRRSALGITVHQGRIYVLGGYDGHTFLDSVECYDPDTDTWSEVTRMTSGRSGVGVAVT
row,Compound,inhibition at 0.1 µM
1,"Cc1c2ccc3c1nnn3CCCCCc1ccc(cc1)C(=O)N1CCc3ccc(cc3C1)C2CC(=O)O (racemic) [Example 1, [32-Methyl-20-oxo-8,9,10,21-tetraazahexacyclo[19.5.3.2^16,19.1^3,7.0^6,10.0^24,28]dotriaconta-1(26),3(32),4,6,8,16,18,24,27,30-decaen-2-yl]acetic acid]",100%
2,"O=C(O)CC1c2ccc3c(c2)CN(CC3)C(=O)c2ccc(cc2)CCCCCn2nnc3cc1ccc32 (racemic) [Example 2, [20-oxo-8,9,10,21-tetraazahexacyclo[19.5.3.2^16,19.1^3,7.0^6,10.0^24,28]dotriaconta-1(26),3(32),4,6,8,16,18,24,27,30-decaen-2-yl]acetic acid]",100%
3,"Cc1c2ccc3c1nnn3CCCCCc1ccc(c3c1CC(C)(C)O3)C(=O)N1CCc3ccc(cc3C1)C2CC(=O)O (racemic) [Example 8, [6,6,33-Trimethyl-2-oxo-5-oxa-1,15,16,17-tetraazaheptacyclo[22.5.3.2^3,9.1^18,22.0^4,8.0^15,19.0^27,31]pentatriaconta-3,8,16,18(33),19,21,24,26,31,34-decaen-23-yl]acetic acid]",100%
4,"Cc1c2ccc3c1nnn3CCCCc1ccc(cc1)C(=O)N1CCc3ccc(cc3C1)C2CC(=O)O (racemic) [Example 13, [31-Methyl-19-oxo-8,9,10,20-tetraazahexacyclo[18.5.3.2^15,18.1^3,7.0^6,10.0^23,27]hentriaconta-1(25),3(31),4,6,8,15,17,23,26,29-decaen-2-yl]acetic acid]",99%
5,"Cc1c2ccc3c1nnn3CC/C=C\CCc1ccc(cc1)C(=O)N1CCc3ccc(cc3C1)C2CC(=O)O (racemic) [Example 14, [(13Z)-33-Methyl-21-oxo-8,9,10,22-tetraazahexacyclo[20.5.3.2^17,20.1^3,7.0^6,10.0^25,29]tritriaconta-1(27),3(33),4,6,8,13,17,19,25,28,31-undecaen-2-yl]acetic acid]",79%
6,"Cc1c2ccc3c1nnn3CCCCCCc1ccc(cc1)C(=O)N1CCc3ccc(cc3C1)C2CC(=O)O (racemic) [Example 15, [33-Methyl-21-oxo-8,9,10,22-tetraazahexacyclo[20.5.3.2^17,20.1^3,7.0^6,10.0^25,29]tritriaconta-1(27),3(33),4,6,8,17,19,25,28,31-decaen-2-yl]acetic acid]",100%
7,"Cc1c2ccc3c1nnn3CCCOCc1ccc(cc1)C(=O)N1CCc3ccc(cc3C1)C2CC(=O)O (racemic) [Example 16, [32-Methyl-20-oxo-14-oxa-8,9,10,21-tetraazahexacyclo[19.5.3.2^16,19.1^3,7.0^6,10.0^24,28]dotriaconta-1(26),3(32),4,6,8,16,18,24,27,30-decaen-2-yl]acetic acid]",100%
8,"Cc1cc2ccc1C(=O)N1CCc3ccc(cc3C1)C(CC(=O)O)c1ccc3c(nnn3CCCOC2)c1C (racemic) [Example 17, [18,32-Dimethyl-20-oxo-14-oxa-8,9,10,21-tetraazahexacyclo[19.5.3.2^16,19.1^3,7.0^6,10.0^24,28]dotriaconta-1(26),3(32),4,6,8,16,18,24,27,30-decaen-2-yl]acetic acid]",100%
9,"CCc1cc2ccc1C(=O)N1CCc3ccc(cc3C1)C(CC(=O)O)c1ccc3c(nnn3CCCOC2)c1C (racemic) [Example 18, [18-Ethyl-32-methyl-20-oxo-14-oxa-8,9,10,21-tetraazahexacyclo[19.5.3.2^16,19.1^3,7.0^6,10.0^24,28]dotriaconta-1(26),3(32),4,6,8,16,18,24,27,30-decaen-2-yl]acetic acid]",100%
10,"Cc1c2ccc3c1nnn3CCCOCc1ccc(c(C3CC3)c1)C(=O)N1CCc3ccc(cc3C1)C2CC(=O)O (racemic) [Example 19, [18-Cyclopropyl-32-methyl-20-oxo-14-oxa-8,9,10,21-tetraazahexacyclo[19.5.3.2^16,19.1^3,8.0^6,10.0^24,28]dotriaconta-1(26),3(32),4,6,8,16,18,24,27,30-decaen-2-yl]acetic acid]",100%
11,"Cc1c2ccc3c1nnn3CCCOCc1ccc(c(OC(F)(F)F)c1)C(=O)N1CCc3ccc(cc3C1)C2CC(=O)O (racemic) [Example 20, [32-Methyl-20-oxo-18-(trifluoromethoxy)-14-oxa-8,9,10,21-tetraazahexacyclo[19.5.3.2^16,19.1^3,7.0^6,10.0^24,28]dotriaconta-1(26),3(32),4,6,8,16,18,24,27,30-decaen-2-yl] acetic acid]",100%
12,"COc1cc2ccc1C(=O)N1CCc3ccc(cc3C1)C(CC(=O)O)c1ccc3c(nnn3CCCOC2)c1C (racemic) [Example 22, [18-Methoxy-32-methyl-20-oxo-14-oxa-8,9,10,21-tetraazahexacyclo[19.5.3.2^16,19.1^3,7.0^6,10.0^24,28]dotriaconta-1(26),3(32),4,6,8,16,18,24,27,30-decaen-2-yl]acetic acid]",100%
13,"Cc1c2ccc3c1nnn3CCCOCc1ccc(c(C(F)(F)F)c1)C(=O)N1CCc3ccc(cc3C1)C2CC(=O)O (racemic) [Example 23, [32-Methyl-20-oxo-18-(trifluoromethyl)-14-oxa-8,9,10,21-tetraazahexacyclo[19.5.3.2^16-19.1^3,7.0^6,10.0^24,28]dotriaconta-1(26),3(32),4,6,8,16,18,24,27,30-decaen-2-yl]acetic acid]",100%
14,"Cc1c2ccc3c1nnn3CCCOCc1ccc(c(Cl)c1)C(=O)N1CCc3ccc(cc3C1)C2CC(=O)O (racemic) [Example 24, [18-Chloro-32-methyl-20-oxo-14-oxa-8,9,10,21-tetraazahexacyclo[19.5.3.2^16,19.1^3,7.0^6,10.0^24,28]dotriaconta-1(26),3(32),4,6,8,16,18,24,27,30-decaen-2-yl]acetic acid]",100%
15,"CCOC(=O)CC1c2ccc3c(c2)CN(CC3)C(=O)c2ccc(cc2)COCCCn2nnc3c(C)c1ccc32 (racemic) [Example 27, Ethyl [32-methyl-20-oxo-14-oxa-8,9,10,21-tetraazahexacyclo[19.5.3.2^16,19.1^3,7.0^6,10.0^24,28]dotriaconta-1(26),3(32),4,6,8,16,18,24,27,30-decaen-2-yl]acetate]",6%
16,"Cc1c2ccc3c1nnn3CCCOCc1ccc(cc1)C(=O)N1CCc3ccc(cc3C1)C2C(C)(C)C(=O)O (racemic) [Example 28, 2-Methyl-2-[32-methyl-20-oxo-14-oxa-8,9,10,21-tetraazahexacyclo[19.5.3.2^16,19.1^3,7.0^6,10.0^24,28]dotriaconta-(26),3(32),4,6,8,16,18,24,27,30-decaen-2-yl]propanoic acid]",100%
17,"Cc1c2ccc3c1nnn3CCCCOc1ccc(cc1)C(=O)N1CCc3ccc(cc3C1)C2CC(=O)O (racemic) [Example 30, [32-Methyl-20-oxo-15-oxa-8,9,10,21-tetraazahexacyclo[19.5.3.2^16,19.1^3,7.0^6,10.0^24,28]dotriaconta-1(26),3(32),4,6,8,16,18,24,27,30-decaen-2-yl]acetic acid]",100%
18,"Cc1c2ccc3c1nnn3CCCCOc1ccc(c(F)c1)C(=O)N1CCc3ccc(cc3C1)C2CC(=O)O (racemic) [Example 31, [18-Fluoro-32-methyl-20-oxo-15-oxa-8,9,10,21-tetraazahexacyclo[19.5.3.2^16,19.1^3,7.0^6,10.0^24,28]dotriaconta-1(26),3(32),4,6,8,16,18,24,27,30-decaen-2-yl]acetic acid]",100%
